Measured values from patent publication US9701680B2, “Pyrimidine and pyridine compounds and their usage” (HUTCHISON MEDIPHARMA LIMITED, priority 2013, dated 2017).
Where two headings read alike, the source gives them in different places.

Key:
Recombinant human FGFR1 = Recombinant human FGFR1 (Homo sapiens, UniProt P11362); assay: Transcreener Kinase Assay of FGFR1; type: biochemical
Description: (§1) • 1. […] Prepare Solution • Test compounds were solved in DMSO and were diluted with assay buffer to 5 folds of final concentration keeping the DMSO concentration at 5%. Further dilution are needed to make final concentrations are at 1, 0.33, 0.11, 0.037, 0.012, 0.004, 0.0014, 0.0005 μM; (the final concentration of DMSO is 1%). • Enzyme/Substrate stock Preparation: Recombinant human FGFR1 and Poly E4Y are both diluted in assay buffer.
• 3. Enzymatic Reaction • In a 96-well plate, add 5 μL of diluted solution of test compound or control solution. (positive control: 5 μL of 5% DMSO; negative control: 5 μL of 500 mM EDTA) into desired wells respectively; • Add 10 μL of Enzyme/Substrate stock into each well; • Add 10 μL of ATP Diluents to initiate the enzyme reaction and vortex the plate immediately on a plate shaker; • For the wells to make standard curve, add 5 μL of 5% DMSO, 10 μL of assay buffer and 10 μL of ATP standard curve stock. • Incubate the plate for 45 min at 28° C. on a plate shaker in a low speed. • 4. […] Excitation wavelength: 610 nm, Emission wavelength: 670 nm. • 5. Data Analysis
(§2) [formula] Note: • [ADP] in Compound well represents the ADP concentration in test compound well. • [ADP] in Positive control well represents the ADP concentration in 5% DMSO well • Conversion of mP value to ADP concentration is calculated based on the formula which determined by standard curve. And mP value is measured by following the instruction provided by BellBrook Labs. (www.bellbrooklabs.com). • 6. IC50: determined with add-in software for Microsoft Excel, XLfit™ (version 2.0) from ID Business Solutions (Guildford, UK).

Recombinant human FGFR2 = Recombinant human FGFR2 (Homo sapiens, UniProt P21802); assay: Transcreener Kinase Assay of FGFR2; type: biochemical
Recombinant human FGFR2, sequence (P21802 22-821): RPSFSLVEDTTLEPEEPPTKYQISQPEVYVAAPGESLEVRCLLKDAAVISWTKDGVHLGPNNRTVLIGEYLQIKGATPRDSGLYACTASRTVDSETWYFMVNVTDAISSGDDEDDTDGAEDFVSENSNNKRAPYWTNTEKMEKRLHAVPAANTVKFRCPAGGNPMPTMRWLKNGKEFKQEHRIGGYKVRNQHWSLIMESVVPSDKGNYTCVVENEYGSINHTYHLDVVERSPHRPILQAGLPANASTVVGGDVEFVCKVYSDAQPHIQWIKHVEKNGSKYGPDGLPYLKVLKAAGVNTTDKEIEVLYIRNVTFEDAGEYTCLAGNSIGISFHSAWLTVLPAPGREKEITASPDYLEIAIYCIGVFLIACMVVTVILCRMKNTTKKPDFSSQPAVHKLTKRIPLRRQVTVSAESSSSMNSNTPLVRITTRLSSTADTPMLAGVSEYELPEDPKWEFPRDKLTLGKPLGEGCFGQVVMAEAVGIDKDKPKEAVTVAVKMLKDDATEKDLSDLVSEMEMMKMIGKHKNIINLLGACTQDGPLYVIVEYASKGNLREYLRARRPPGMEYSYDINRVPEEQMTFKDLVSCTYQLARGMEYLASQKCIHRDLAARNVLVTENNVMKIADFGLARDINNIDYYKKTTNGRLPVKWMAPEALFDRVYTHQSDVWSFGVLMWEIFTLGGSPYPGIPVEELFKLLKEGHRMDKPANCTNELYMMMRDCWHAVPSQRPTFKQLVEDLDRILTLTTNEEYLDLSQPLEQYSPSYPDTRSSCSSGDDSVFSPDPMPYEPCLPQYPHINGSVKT
Description: Example 24: Transcreener Kinase Assay of FGFR2
as §1, with “FGFR2” for “FGFR1”, “buffer. The final concentration is 0.3 ng/μL for FGFR2 and 62.5 ng/μL for Poly E4Y. The mixture is being kept in ice before use; • Prepare ATP Diluents, 10 mM ATP is diluted in assay buffer, the final concentration is 25 μM; • Prepare ADP Diluents: diluted ADP (500 μM) in assay buffer, the final concentration is 25 μM; • Prepare ATP standard curve stock as following:” for “buffer.”
• 3. Enzymatic Reaction • In a 96-well plate, add 5 μL of deluted solution of test compound or control solution. (positive control: 5 μL of 5% DMSO; negative control: 5 μL of 500 mM EDTA) into desired wells respectively; • Add 10 μL of Enzyme/Substrate stock into each well; • Add 10 μL of ATP Diluents to initiate the enzyme reaction and vortex the plate immediately on a plate shaker; • For the wells to make standard curve, add 5 μL of 5% DMSO, 10 μL of assay buffer and 10 μL of ATP standard curve stock. • Incubate the plate for 45 min at 28° C. on a plate shaker in a low speed. • 4. Stoping Reaction and Detecting ADP • Detection Mix Preparation: The mixture is made by dilution with MilliQ water; as following: ADP Alexa633 tracer (1:100), ADP antibody (1:158), and stop & detect buffer (1:10); • Tracer Only control Preparation: The mixture is made by dilution with MilliQ water; as following: ADP Alexa633 tracer (1:100), and stop & detect buffer (1: 10) • No Tracer control Preparation: stop & detect buffer is diluted with MilliQ water; by 10 fold. • Add 25 μL of detection mix, Tracer Only control and No Tracer control into corresponding wells, respectively; • Incubate at 28° C. for 1 h, on a plate shaker in a low speed; • Measure florescence polarization (mP) on TECAN F500. Excitation wavelength: 610 nm, Emission wavelength: 670 nm. • 5. Data Analysis
as §2

FGFR3 kinase = FGFR3 kinase (Homo sapiens, UniProt P22607); assay: Z-Lyte Kinase Assay of FGFR3; type: biochemical
FGFR3 kinase, sequence (P22607 23-806): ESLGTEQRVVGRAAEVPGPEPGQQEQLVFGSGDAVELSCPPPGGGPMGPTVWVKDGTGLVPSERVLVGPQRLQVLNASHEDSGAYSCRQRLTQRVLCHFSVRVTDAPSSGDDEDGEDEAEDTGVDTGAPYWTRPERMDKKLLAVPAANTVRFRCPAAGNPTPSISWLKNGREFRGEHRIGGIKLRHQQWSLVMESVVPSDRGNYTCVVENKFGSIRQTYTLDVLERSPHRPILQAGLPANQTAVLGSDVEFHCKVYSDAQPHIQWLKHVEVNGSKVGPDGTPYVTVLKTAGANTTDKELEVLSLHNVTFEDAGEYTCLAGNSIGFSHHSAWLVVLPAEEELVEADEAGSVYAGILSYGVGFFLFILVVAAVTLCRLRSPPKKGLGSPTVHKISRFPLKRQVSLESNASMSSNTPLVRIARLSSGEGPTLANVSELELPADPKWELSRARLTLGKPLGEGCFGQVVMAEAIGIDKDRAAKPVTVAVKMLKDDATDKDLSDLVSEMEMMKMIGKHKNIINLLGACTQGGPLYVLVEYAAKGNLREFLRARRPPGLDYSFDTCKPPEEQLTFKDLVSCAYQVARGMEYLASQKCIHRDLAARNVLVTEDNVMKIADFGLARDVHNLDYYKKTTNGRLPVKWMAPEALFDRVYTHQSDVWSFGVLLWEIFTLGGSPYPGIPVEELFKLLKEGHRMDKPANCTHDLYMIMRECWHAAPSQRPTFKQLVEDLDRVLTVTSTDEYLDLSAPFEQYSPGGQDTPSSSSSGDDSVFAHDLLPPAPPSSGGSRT
Description: Example 25: Z-Lyte Kinase Assay of FGFR3
• 1. Materials and Reagents:
• 2. Reaction Steps: Plate Map
• 3. […] The final concentrations are 1, 0.33, 0.11, 0.037, 0.012, 0.004, 0.0014, 0.00046 μM, and the final concentration of DMSO is 2%. • 3) Kinase/Peptide Mixture (P/K solution): Prepare Kinase/Peptide Mixture by diluting the kinase to 0.7 μg/ml and the Z-LYTE™ Tyr 4 peptide to 4 μM in 1.33× Kinase Buffer. Mix gently by pipetting. • 4) Phospho-peptide Solution (PP solution): Add 0.4 μl of Z-LYTE™ Tyr 4 Phospho-peptide to 99.6 μl of 1.33× Kinase Buffer. • 5) ATP Solution: Prepare ATP Solution by diluting the 10 mM of ATP in 1.33× Kinase Buffer to 300 uM. • 6) Development Solution: Dilute Development Reagent B with Development Buffer as 1:128. • 4. […] Shake the plate for 30 Sec and centrifuge (1500 rpm, 1 min). • Seal the plate to protect from the light and incubate the plate for 1 hour at RT (25-30° C.). • 2) Development reaction • Add 5 μl of the Development solution to all wells. • Shake the plate for 30 Sec and centrifuge (1500 rpm, 1 min). • Seal the plate to protect from the light and incubate the plate for 1 hour at RT (25-30° C.). • 3) Stop and Read • Add 5 μl of the Stop reagent to all wells. • Shake the plate for 30 Sec and centrifuge (1500 rpm, 1 min). • Measure the value of Coumarin (Ex400 nm, Em445 nm) and fluorescein (Ex400 nm, Em520 nm), respectively. • 5. Data Analysis Emission Ratio(ER)=Coumarin Emission (445 nm)/Fluorescein Emission (520 nm) % Phosphorylation=1−[ER×C3520nm-C3445nm]/[(C1445nm-C3445nm)+ER×(C3520nm−C1520nm)] Inhibition rate (IR)=1−% Photest Cpd/% PhoC2 • 6. IC50 Value: determined with add-in software for Microsoft Excel, XLfit™ (version 2.0) from ID Business Solutions (Guildford, UK)

KG-1 = assay: Cellular Proliferation Assay (Cell Counting Kit-8), KG-1; type: cell-based; settings: Homo sapiens; KG-1 cells, 72 hours; read-out: KG1 IC50
Description: (§3) Example 26: Cellular Proliferation Assay
(§4) • 1. Cell Line • KG-1 (ATCC Accession No. CCL-246), • SNU-16 (ATCC Accession No. CRL-5974), • RT-112 (ECACC Accession No. 85061106) • 2. Assay Protocol • FGFR related cancer cell proliferation is measured in 96-well plates using Cell Counting Kit-8 (Dojindo CK04-13). • Seed 30000 cells/well of KG1, 5000 cells/well of SNU16, and 1000 cells/well of RT112 in a volume of 100 μL/well in growth media. • After 24 hours, dilute the test compound to 10, 3.3, 1.1, 0.37, 0.12, 0.04, 0.013, 0.004 μM, keeping the DMSO concentration at 5%. • Add 10 μL of 8-point compound series to the wells of culturing cells. • Incubate at 37° C. and 5% CO2 for 72 hours • Add 10 μL/well of CCkit8 and incubate at 37° C. and 5% CO2 for an hour • Detect the optical density of each well at 450 nm on Labsystems Multiskan K3. • 3. Data Analysis
(§5) [formula] Note: • ODcompound well represents the optical density of cells treated with compound. • ODcell well represents the optical density of cells without compounds treatment.(only 0.5% DMSO) • ODcontrol well represents the optical density of culture media background • IC50: determined with add-in software for Microsoft Excel, XLfit™ (version 2.0) from ID Business Solutions (Guildford, UK).

SNU-16 = assay: Cellular Proliferation Assay (Cell Counting Kit-8), SNU-16; type: cell-based; settings: Homo sapiens; SNU-16 cells, 72 hours
Description: as §3, §4, §5

RT-112 = assay: Cellular Proliferation Assay (Cell Counting Kit-8), RT-112; type: cell-based; settings: Homo sapiens; RT-112 cells, 72 hours
Description: as §3, §4, §5

Recombinant human FGFR1, sequence (P11362 22-822): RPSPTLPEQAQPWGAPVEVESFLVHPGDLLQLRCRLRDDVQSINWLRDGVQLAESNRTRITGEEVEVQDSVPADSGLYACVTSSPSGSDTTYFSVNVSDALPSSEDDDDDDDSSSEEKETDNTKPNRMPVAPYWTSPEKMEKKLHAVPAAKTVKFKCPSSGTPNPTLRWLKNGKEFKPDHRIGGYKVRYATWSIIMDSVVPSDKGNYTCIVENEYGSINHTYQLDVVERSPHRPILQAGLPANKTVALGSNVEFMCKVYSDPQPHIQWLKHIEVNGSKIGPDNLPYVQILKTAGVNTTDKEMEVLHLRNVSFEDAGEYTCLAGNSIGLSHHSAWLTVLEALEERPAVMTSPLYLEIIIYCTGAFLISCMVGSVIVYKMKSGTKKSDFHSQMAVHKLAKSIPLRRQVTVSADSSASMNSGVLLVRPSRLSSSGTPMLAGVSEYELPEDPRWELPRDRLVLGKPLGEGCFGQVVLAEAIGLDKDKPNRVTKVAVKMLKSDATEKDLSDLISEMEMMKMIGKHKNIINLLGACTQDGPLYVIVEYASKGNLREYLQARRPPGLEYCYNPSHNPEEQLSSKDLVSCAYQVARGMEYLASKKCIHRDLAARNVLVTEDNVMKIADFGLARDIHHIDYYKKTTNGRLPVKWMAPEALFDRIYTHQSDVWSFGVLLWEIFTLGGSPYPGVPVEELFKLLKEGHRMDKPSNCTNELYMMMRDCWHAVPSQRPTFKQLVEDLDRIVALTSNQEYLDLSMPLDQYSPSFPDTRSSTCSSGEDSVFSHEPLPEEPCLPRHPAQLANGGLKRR

IC50 (Recombinant human FGFR1; FP) [nM]	IC50 (Recombinant human FGFR2; FP) [nM]	IC50 (FGFR3 kinase; Z-lyte) [nM]	IC50 (SNU-16) [nM]	IC50 (Recombinant human FGFR1; read-out: FGFR1 (FP) IC50) [nM]	IC50 (Recombinant human FGFR2; read-out: FGFR2 (FP) IC50) [nM]	IC50 (FGFR3 kinase) [nM]	SMILES	IC50 (KG-1) [nM]	IC50 (RT-112) [nM]
11	8	8	14	–	–	–	CNC(=O)c1cc(COc2cnc(Nc3cnc(N4C[C@@H](C)N[C@@H](C)C4)c(C)c3)nc2)c(Cl)c(OC)c1 [Compound 287]	54	35
–	–	–	6	20	9	9	CCN(CC)CCc1cccc(Nc2ncc(OCc3cc(C(=O)NC)cc(OC)c3F)cn2)c1 [Compound 243]	69	15
–	–	–	14	101	32	45	CNC(=O)c1cc(COc2cnc(Nc3ccc4c(c3)NC(=O)C4(C)C)nc2)c(F)c(OC)c1 [Compound 230]	76	26
–	–	–	14	5	5	6	CNC(=O)c1cc(COc2cnc(Nc3ccc(N4CCN(C)CC4)nc3)nc2)c(Cl)c(OC)c1 [Compound 263]	7	28
–	–	–	17	6	6	8	CNC(=O)c1cc(COc2cnc(Nc3ccc(N4C[C@@H](C)N(C)[C@@H](C)C4)cc3)nc2)c(F)c(OC)c1 [Compound 267]	28	33
–	–	–	24	12	5	3	CNC(=O)c1cc(CCc2cnc(Nc3cnn(C[C@H](C)O)c3)nc2)c(Cl)c(OC)c1 [Compound 88]	30	50
10	7	11	11	–	–	–	CNC(=O)c1cc(OC)c(Cl)c(COc2cnc(Nc3ccc(N4C[C@@H](C)N[C@@H](C)C4)cc3)nc2)c1F [Compound 290]	6	12
–	–	–	41	25	23	24	CCN(CC)CCn1cc(Nc2ncc(OCc3c(F)c(OC)cc(C(=O)NC)c3F)cn2)cn1 [Compound 251]	31	87
13	13	19	104	–	–	–	CCN(CC)CCNC(C)c1ccc(Nc2ncc(OCc3cc(C(=O)NC)cc(OC)c3Cl)cn2)cc1 (stereo not drawn) [Compound 295]	40	337
–	–	–	8	21	22	16	CCN1CCC(c2ccc(Nc3ncc(OCc4cc(C(=O)NC)cc(OC)c4F)cn3)cc2)CC1 [Compound 252]	28	6
–	–	–	12	12	8	6	CNC(=O)c1cc(CCc2cnc(Nc3ccc(N4C[C@@H](C)N(C)[C@@H](C)C4)cc3)nc2)c(Cl)c(OC)c1 [Compound 175]	11	30
–	–	–	7	25	12	21	CNC(=O)c1cc(COc2cnc(Nc3ccc(OC)c(OC)c3)nc2)c(F)c(OC)c1 [Compound 218]	27	44
–	–	–	8	16	16	11	CNC(=O)c1cc(COc2cnc(Nc3ccc(C4CCNCC4)cc3)nc2)c(F)c(OC)c1 [Compound 231]	58	9
–	–	–	14	18	10	13	CNC(=O)c1cc(COc2cnc(Nc3ccc(CN4CCOCC4)cc3)nc2)c(F)c(OC)c1 [Compound 242]	10	32
–	–	–	65	9	8	25	CCN1CCN(c2ccc(Nc3ccc(CCc4cc(OC)cc(C(=O)NOC)c4)cn3)cc2)CC1 [Compound 73]	70	493
–	–	–	14	26	16	80	CNC(=O)c1cc(COc2cnc(Nc3cccc(OC)c3)nc2)c(F)c(OC)c1 [Compound 212]	59	57
